pIC50: −log10 of the molar value. “Also recorded” adds a separate entry of the source. Read-outs that look alike come from different tables or passages of the source.
How the values were obtained:
KLF4 [1] = test: KLF4 gene expression by RT-PCR, SK-MEL-2; type: cell-based, human; details: SK-MEL-2, relative to vehicle control as 1
Description: (§1) Gene expression levels of KLF4, induced by compounds of Formula I, were also examined on various cancer cell types by RT-PCR. Fold changes in KLF4 in compound-treated cells were expressed relative to KLF4 expression in vehicle control-treated cells of respective cell type as “1”. […] Additionally, xenografts of MDA-MB-435 implanted into mammary fat pads of female SCID mice have shown immunohistochemical staining consistent with melanocytic origin (Ellison G, Klinowska T, Westwood R F, Docter E, French T, Fox J C. (2002) Mol Pathol. 55(5): 294-299). The breast cancer cell line MDA-MB-435 may be expected to function differently than the other breast cancer cell lines.

KLF4 [2] = test: KLF4 gene expression by RT-PCR, MDA-MB-435; type: cell-based, human; details: MDA-MB-435, relative to vehicle control as 1
Description: as §1

[3] = tested on: DU-145 prostate cancer cells; test: XTT cell proliferation assay, DU-145; type: cell-based, human; details: read-out: IC50 (cell growth inhibition)
Description: (§2) Cell growth inhibition IC50 (μM) by compounds of Formula I was tested on various cancer cell types by XTT cell proliferation assay. The growth inhibitory effects of the compounds of Formula I as shown below for the melanoma cell line SK-MEL-2 were reproducible by Lorus Therapeutics Inc.

CCRF-CEM leukemia cells = test: XTT cell proliferation assay, CCRF-CEM; type: cell-based, human; details: read-out: IC50 (cell growth inhibition)
Description: as §2

[4] = tested on: human colon carcinoma HT-29 cells; test: XTT cell proliferation assay, HT-29; type: cell-based; details: for IC50: as Example 13, Table 7
Summary of the method: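 HT-29 cells in McCoy's 5A with 10% FBS, 37° C., 5% CO2, exposed to varying compound concentrations for 6-7 days. Viable cells quantified by XTT reduction to formazan; growth inhibition expressed as IC50 (μM).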

MOLT-4 leukemia cells = test: XTT cell proliferation assay, MOLT-4; type: cell-based, human; details: read-out: IC50 (cell growth inhibition)
Description: as §2

KLF4 [5] = test: KLF4 gene expression by RT-PCR, MOLT-4; type: cell-based, human; details: MOLT-4, relative to vehicle control as 1
Description: as §1

KLF4 [6] = test: KLF4 gene expression by RT-PCR, CCRF-CEM; type: cell-based, human; details: relative to vehicle control as 1
Description: as §1

KLF4 [7] = test: KLF4 gene expression by RT-PCR, MDA-MB-231; type: cell-based, human; details: MDA-MB-231, relative to vehicle control as 1
Description: as §1

SK-MEL-2 melanoma cells = test: XTT cell proliferation assay, SK-MEL-2; type: cell-based, human; details: read-out: IC50 (cell growth inhibition)
Description: as §2

KLF4 [8] = test: KLF4 gene expression by RT-PCR, H-460; type: cell-based, human; details: for KLF2, KLF4 and KLF6 gene expression: H-460, 2.5 μM; for KLF4 (gene fold increase): H-460, relative to vehicle control as 1
Description: as §1
Expressions of KLF2, 4 and 6 genes in H-460 cells, treated with vehicle control or 2.5 μM compound 3 or compound 7, were measured by RT-PCR. Gene expression was presented relative to respective gene expression in vehicle control-treated group as “1”.

H-460 lung cancer cells = test: XTT cell proliferation assay, H-460; type: cell-based, human
Description: as §2

KLF4 [9] = test: KLF4 gene expression by RT-PCR, HCT-116; type: cell-based, human; details: HCT-116, relative to vehicle control as 1
Description: as §1

Cyclin D1 = Cyclin D1 gene expression in HT-29 cells, RT-PCR; type: cell-based, human; details: for Cyclin D1 expression change with zinc supplement: HT-29, 1 μM compound plus ZnCl2; for Cyclin D1 gene expression, change: HT-29, 1 μM, in words
Description: Gene and protein expression of Cyclin D1 after treatment with compound 3 was determined by RT-PCR and Western blotting as shown in FIGS. 43A and 43B, respectively, as follows. HT-29 cells were treated with 1 μM compound 3 for indicated time. Total RNA was extracted and gene expression level was determined by RT-PCR. Cyclin D1 protein expression in HT-29 cell lysate was determined by SDS-PAGE followed by Western blotting.
To identify the cell cycle regulatory pathway involved in compound 3-mediated cell cycle arrest as shown in Example 23 and 41, particularly associated with G1/S phase, expression of the key cell cycle regulator of G1/S phase progression, Cyclin D1, was examined.
(§3) The ability of compounds of Formula I to modulate gene expression of MT1A (FIG. 55A), MTF-1 (FIG. 55B), Cyclin D1 (FIG. 55C) and KLF4 (FIG. 55D) was determined by RT-PCR. HT-29 cells were treated with 1 μM compound 3 or compound 7, 35 μM ZnCl2, compound 3 and ZnCl2 together, or compound 7 and ZnCl2 together for 8 to 16 hr. The respective gene expression was normalized with β-actin gene expression in the same sample. Fold change in gene expression was expressed relative to the respective gene level of DMSO control.
(§4) The effect of compound 3 and compound 64 on gene expression changes in MT1A (FIG. 57A), MTF-1 (FIG. 57B), Cyclin D1 (FIG. 57C) and KLF4 (FIG. 57D) in HT-29 cells was determined by RT-PCR. HT-29 cells were treated with 1 μM compound 3 or compound 64, 35 μM ZnCl2, compound 3 and ZnCl2 together, or compound 64 and ZnCl2 together for 8 to 16 hr. The respective gene expression was normalized with β-actin gene expression in the same sample. Fold change in gene expression was expressed relative to the respective gene level of DMSO control.

MTF-1 = MTF-1 gene expression in HT-29 cells, RT-PCR; type: cell-based, human; details: for MTF-1 expression change with zinc supplement: HT-29, 1 μM compound plus ZnCl2, 8 hr; for MTF-1 gene expression, change: HT-29, 1 μM, in words
Description: The gene expression of MTF-1 was examined by RT-PCR following treatment of HT-29 cells with 1 μM compound 3 for indicated time.
To assess the cellular response to zinc depletion, the gene expression of zinc-sensitive transcription factor MTF-1 was examined.
as §3, §4

KLF4 [10] = test: KLF4 gene expression by RT-PCR, DU-145; type: cell-based, human; details: DU-145, relative to vehicle control as 1
Description: as §1

[11] = Homo sapiens, HT-29, XTT, 6-7 days, Table 3, read-out: IC50
[12] = Homo sapiens, HT-29, XTT, read-out: IC50
[13] = Homo sapiens, HT-29 colon, Table 8, read-out: IC50 (cell growth inhibition)
[14] = Homo sapiens, NCI-H460, read-out: IC50 (cell growth inhibition)

Structure (SMILES): Cc1[nH]c2ccc(F)cc2c1-c1nc2c3cccnc3c3ncccc3c2[nH]1 [Compound 7]
- KLF4 (gene fold increase) (KLF4 [1]): 3.32 fold
- KLF4 (gene fold increase) (KLF4 [2]): 11.71 fold
- pIC50 ([3]; Homo sapiens): 6.66
- pIC50 (CCRF-CEM leukemia cells; Homo sapiens): 6.40
- pIC50 [4, 11]: 6.15
- IC50 [4, 12]: 0.7 µg/mL
- pIC50 [4, 13]: 6.10
- pIC50 (MOLT-4 leukemia cells; Homo sapiens): 7.15
- KLF4 (gene fold increase) (KLF4 [5]): 173.6 fold
- KLF4 (gene fold increase) (KLF4 [6]): 48.5 fold
- KLF4 (gene fold increase) (KLF4 [7]): 1.6 fold
- pIC50 (SK-MEL-2 melanoma cells; Homo sapiens): 6.70
- KLF2, KLF4 and KLF6 gene expression (KLF4 [8]): increased KLF4 as most significantly changed gene
- KLF4 (gene fold increase) (KLF4 [8]): 2.1 fold
- pIC50 (H-460 lung cancer cells; [14]): 5.59
- KLF4 (gene fold increase) (KLF4 [9]): 6.15 fold
- Cyclin D1 expression change with zinc supplement (Cyclin D1): reversed by addition of zinc supplement
- Cyclin D1 gene expression, change (Cyclin D1): decreased expressions of MT1A, MTF-1 and Cyclin D1
- MTF-1 expression change with zinc supplement (MTF-1): reversed by addition of zinc supplement
- MTF-1 gene expression, change (MTF-1): decreased expressions of MT1A, MTF-1 and Cyclin D1
- KLF4 (gene fold increase) (KLF4 [10]): 11.24 fold

Structure (SMILES): CCc1cccc2c(-c3nc4c5cccnc5c5ncccc5c4[nH]3)c(C(C)(C)C)[nH]c12 [Compound 64]
- KLF4 (gene fold increase) (KLF4 [1]): 5.35 fold
- KLF4 (gene fold increase) (KLF4 [2]): 7.59 fold
- pIC50 [3]: 6.52
- pIC50 (CCRF-CEM leukemia cells): 6.60
- IC50 ([4]; HT-29, XTT): 0.15 µg/mL
- pIC50 ([4]; HT-29 colon, Table 8, read-out: IC50 (cell growth inhibition)): 6.82
- pIC50 (MOLT-4 leukemia cells): 6.76
- KLF4 (gene fold increase) (KLF4 [5]): 265.03 fold
- KLF4 (gene fold increase) (KLF4 [6]): 73.77 fold
- KLF4 (gene fold increase) (KLF4 [7]): 2.06 fold
- pIC50 (SK-MEL-2 melanoma cells): 6.70
- KLF4 (gene fold increase) (KLF4 [8]): 1.64 fold
- pIC50 (H-460 lung cancer cells; read-out: IC50 (cell growth inhibition)): 6.52
- KLF4 (gene fold increase) (KLF4 [9]): 3.05 fold
- Cyclin D1 expression change with zinc supplement (Cyclin D1): reversed by addition of zinc supplement
- Cyclin D1 gene expression, change (Cyclin D1): decreased expressions of MT1A, MTF-1 and Cyclin D1
- MTF-1 expression change with zinc supplement (MTF-1): reversed by addition of zinc supplement
- MTF-1 gene expression, change (MTF-1): decreased expressions of MT1A, MTF-1 and Cyclin D1
- KLF4 (gene fold increase) (KLF4 [10]): 6.75 fold

Structure (SMILES): Cc1[nH]c2ccccc2c1-c1nc2c3cccnc3c3ncccc3c2[nH]1 [Compound 3]
- KLF4 (gene fold increase) (KLF4 [1]): 2.38 fold
- KLF4 (gene fold increase) (KLF4 [2]): 9.09 fold
- pIC50 ([3]; Homo sapiens): 6.46
- pIC50 (CCRF-CEM leukemia cells; Homo sapiens): 6.38
- pIC50 [4, 11]: 6.22
- IC50 [4, 12]: 0.6 µg/mL
- pIC50 [4, 13]: 6.15
- pIC50 (MOLT-4 leukemia cells; Homo sapiens): 6.82
- KLF4 (gene fold increase) (KLF4 [5]): 44.79 fold
- KLF4 (gene fold increase) (KLF4 [6]): 28.05 fold
- KLF4 (gene fold increase) (KLF4 [7]): 1.52 fold
- pIC50 (SK-MEL-2 melanoma cells; Homo sapiens): 6.60
- KLF2, KLF4 and KLF6 gene expression (KLF4 [8]): increased KLF4 as most significantly changed gene
- KLF4 (gene fold increase) (KLF4 [8]): 3.4 fold
- pIC50 (H-460 lung cancer cells; [14]): 5.54
- KLF4 (gene fold increase) (KLF4 [9]): 5.88 fold
- Cyclin D1 expression change with zinc supplement (Cyclin D1): reversed in the presence of 25 μM ZnCl2; also recorded: reversed by addition of zinc supplement
- Cyclin D1 gene expression, change (Cyclin D1): Time-dependent decreases; also recorded: decrease in both gene (FIG. 43A) and protein (FIG. 43B) levels of Cyclin D1; also recorded: significantly decreased; also recorded: decreased expressions of MT1A, MTF-1 and Cyclin D1
- MTF-1 expression change with zinc supplement (MTF-1): recovered by addition of zinc supplement; also recorded: reversed by addition of zinc supplement
- MTF-1 gene expression, change (MTF-1): Time-dependent decreases; also recorded: decrease in MTF-1 expression was observed after 8 hr treatment; also recorded: significant decrease in gene expression of MTF-1; also recorded: decreased expressions of MT1A, MTF-1 and Cyclin D1
- KLF4 (gene fold increase) (KLF4 [10]): 9.16 fold

From patent publication US8148392B2, “2-indolyl imidazo [4,5-d] phenanthroline derivatives and their use in the treatment of cancer” (Lorus Therapeutics Inc., priority 2005, dated 2012)
